Test results: patent US20080009418A1, “Selective Inhibitors” (Alchemia LTD., priority 2004, published 2008)

Assays:
Human κ-Opioid (KOP) = target: T1, Human κ-Opioid (KOP) (Homo sapiens, UniProt P41145); assay: Radioligand binding, human κ-opioid (KOP) membranes, filtration, [3H]-Diprenorphine; settings: compound at 10 μM; for A2: inhibition of radioligand binding, human κ-opioid (KOP): [3H]-Diprenorphine; for A2 radioligand binding inhibition: human κ-opioid (KOP) membranes
T1 construct: purchased Perkin Elmer Biosignal
T1 sequence (P41145 whole entry): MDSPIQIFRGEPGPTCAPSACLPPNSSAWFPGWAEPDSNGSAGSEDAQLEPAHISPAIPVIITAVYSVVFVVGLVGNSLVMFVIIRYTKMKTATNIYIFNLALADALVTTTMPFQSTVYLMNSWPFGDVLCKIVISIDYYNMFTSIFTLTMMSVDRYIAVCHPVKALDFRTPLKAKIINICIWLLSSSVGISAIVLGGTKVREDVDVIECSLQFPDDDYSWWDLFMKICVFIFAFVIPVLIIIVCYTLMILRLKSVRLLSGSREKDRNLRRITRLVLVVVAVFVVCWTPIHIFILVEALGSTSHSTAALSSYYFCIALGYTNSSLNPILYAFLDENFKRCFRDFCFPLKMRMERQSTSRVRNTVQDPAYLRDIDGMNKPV
In short: (§1)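 Percent inhibition of radioligand binding measured on recombinant human membranes: NK1 with [125I]-Substance P, KOP with [3H]-Diprenorphine. Incubation 1 h at room temperature, then harvest onto 0.3% PEI-soaked filters, cold Tris-HCl pH 7.4 washes and scintillation counting; non-specific binding from reference ligand wells.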

[1] = target: T2, Human melanin-concentrating hormone (MCH1) (Homo sapiens, UniProt Q99705); assay: Radioligand binding, human melanin-concentrating hormone MCH1 membranes, FlashPlate, [125I]-S36057; settings: compound at 10 μM; for A6: inhibition of radioligand binding, human melanin-concentrating hormone (MCH1): [125I]-S36057; for A6 radioligand binding inhibition: human MCH1 membranes
T2 construct: purchased Perkin Elmer Biosignal
T2 sequence (Q99705 whole entry): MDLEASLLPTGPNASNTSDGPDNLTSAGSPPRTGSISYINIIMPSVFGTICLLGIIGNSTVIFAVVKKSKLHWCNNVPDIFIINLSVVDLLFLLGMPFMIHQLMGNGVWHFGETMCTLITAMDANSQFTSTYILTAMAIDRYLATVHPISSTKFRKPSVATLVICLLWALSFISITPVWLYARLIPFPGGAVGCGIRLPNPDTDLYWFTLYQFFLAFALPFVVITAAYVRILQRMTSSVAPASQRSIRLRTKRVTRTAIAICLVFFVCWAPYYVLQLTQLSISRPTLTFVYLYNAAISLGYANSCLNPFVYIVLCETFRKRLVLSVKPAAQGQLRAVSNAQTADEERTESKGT
In short: (§2)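 Cloned human receptor membranes were coated onto FlashPlate wells and incubated with radioligand and compound (added from a 0.5 mM DMSO daughter plate) for 1 hour at room temperature in the dark. Scintillation counting gave percent inhibition, with DMSO defining total and reference ligand defining non-specific binding.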

Human neurokinin (NK1) = target: T3, Human neurokinin (NK1) (Homo sapiens, UniProt P25103); assay: Radioligand binding, human neurokinin NK1 membranes, filtration, [125I]-Substance P; settings: compound at 10 μM; for A8: inhibition of radioligand binding, human neurokinin (NK1): [125I]-Substance P; for A8 radioligand binding inhibition: human neurokinin NK1 membranes
T3 construct: purchased Perkin Elmer Biosignal
T3 sequence (P25103 whole entry): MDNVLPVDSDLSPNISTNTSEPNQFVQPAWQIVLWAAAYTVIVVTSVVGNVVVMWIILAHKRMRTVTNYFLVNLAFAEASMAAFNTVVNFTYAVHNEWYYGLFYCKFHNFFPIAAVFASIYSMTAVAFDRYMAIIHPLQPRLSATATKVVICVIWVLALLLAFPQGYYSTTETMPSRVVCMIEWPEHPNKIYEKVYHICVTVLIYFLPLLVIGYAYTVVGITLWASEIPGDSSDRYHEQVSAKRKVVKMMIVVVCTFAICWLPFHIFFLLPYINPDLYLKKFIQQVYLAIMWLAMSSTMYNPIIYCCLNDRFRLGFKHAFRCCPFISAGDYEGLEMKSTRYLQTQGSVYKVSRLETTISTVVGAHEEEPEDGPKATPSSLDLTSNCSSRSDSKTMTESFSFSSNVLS
In short: as §1

Human opioid (ORL1) = target: T4, Human opioid (ORL1) (Homo sapiens, UniProt P41146); assay: Radioligand binding, human opioid ORL1 membranes, FlashPlate, [125I]-Nociceptin; settings: compound at 10 μM; for A10: inhibition of radioligand binding, human opioid (ORL1): [125I]-Nociceptin; for A10 radioligand binding inhibition: human ORL1 membranes
T4 construct: purchased Perkin Elmer Biosignal
T4 sequence (P41146 whole entry): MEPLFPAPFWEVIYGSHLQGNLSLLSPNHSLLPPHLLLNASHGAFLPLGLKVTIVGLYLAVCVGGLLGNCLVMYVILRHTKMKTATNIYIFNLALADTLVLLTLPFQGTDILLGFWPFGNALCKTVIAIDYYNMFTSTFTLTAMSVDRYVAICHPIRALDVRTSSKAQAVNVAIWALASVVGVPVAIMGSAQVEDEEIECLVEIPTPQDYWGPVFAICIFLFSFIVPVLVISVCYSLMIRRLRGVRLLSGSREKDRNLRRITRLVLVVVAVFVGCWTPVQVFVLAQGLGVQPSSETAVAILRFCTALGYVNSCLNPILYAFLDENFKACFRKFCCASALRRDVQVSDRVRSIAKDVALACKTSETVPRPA
In short: as §2

Mouse urotensin (mUR2) = target: T5, Mouse urotensin (mUR2) (Mus musculus, UniProt Q8VIH9); assay: Radioligand binding, mouse urotensin mUR2 membranes, FlashPlate, [125I]-Urotensin II; settings: compound at 10 μM; for A11: inhibition of radioligand binding, mouse urotensin (mUR2): [125I]-Urotensin II; for A11 radioligand binding inhibition: mouse urotensin mUR2 membranes
T5 construct: purchased Perkin Elmer Biosignal
T5 sequence (Q8VIH9 1-385): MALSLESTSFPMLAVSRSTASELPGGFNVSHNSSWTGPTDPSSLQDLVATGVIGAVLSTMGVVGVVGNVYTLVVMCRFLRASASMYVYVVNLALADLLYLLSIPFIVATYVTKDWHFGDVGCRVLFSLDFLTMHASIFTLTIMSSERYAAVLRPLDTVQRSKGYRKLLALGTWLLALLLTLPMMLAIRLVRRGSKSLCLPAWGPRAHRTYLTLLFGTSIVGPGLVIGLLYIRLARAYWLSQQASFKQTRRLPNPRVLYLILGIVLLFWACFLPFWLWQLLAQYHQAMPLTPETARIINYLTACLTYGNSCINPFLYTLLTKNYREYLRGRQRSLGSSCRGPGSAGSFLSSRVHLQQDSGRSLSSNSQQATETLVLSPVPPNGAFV
In short: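 Cloned mouse urotensin (mUR2) receptor membranes from Perkin Elmer Biosignal were immobilized in FlashPlate microplates using a proprietary coating. Each well got 19.5 μl buffer, then 0.5 μl of DMSO, reference ligand, or compound. Adding 5 μl of [125I]-Urotensin II, diluted to 5× final concentration in binding buffer, started binding. Plates were sealed with TopSeal-A and incubated 1 hour at room temperature in the dark. Wells were counted for 30 seconds each on a TopCount after a 60-second delay, and percentage inhibition was calculated.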

Human Melanocortin (MC4) = target: T6, Human Melanocortin (MC4) (Homo sapiens, UniProt P32245); assay: Radioligand binding, human melanocortin MC4 membranes, FlashPlate, [125I]-NDP-αMSH; settings: compound at 10 μM; for A4: inhibition of radioligand binding, human melanocortin (MC4): [125I]-NDP-αMSH; for A4 radioligand binding inhibition: human melanocortin MC4 membranes
T6 construct: purchased Perkin Elmer Biosignal
T6 sequence (P32245 whole entry): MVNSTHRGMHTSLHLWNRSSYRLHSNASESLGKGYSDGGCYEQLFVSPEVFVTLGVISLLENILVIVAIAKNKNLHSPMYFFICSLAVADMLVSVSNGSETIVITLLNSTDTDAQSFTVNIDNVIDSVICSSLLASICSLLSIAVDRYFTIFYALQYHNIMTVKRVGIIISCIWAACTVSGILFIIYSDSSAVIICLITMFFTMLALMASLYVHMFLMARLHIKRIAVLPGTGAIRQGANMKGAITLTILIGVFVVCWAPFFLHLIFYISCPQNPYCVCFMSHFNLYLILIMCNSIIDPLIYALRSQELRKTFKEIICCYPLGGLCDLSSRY
In short: as §2

Human Melanocortin (MC3) = target: T7, Human Melanocortin (MC3) (Homo sapiens, UniProt P41968); assay: Radioligand binding, human melanocortin MC3 membranes, FlashPlate, [125I]-NDP-αMSH; settings: compound at 10 μM; for A3: inhibition of radioligand binding, human melanocortin (MC3): [125I]-NDP-αMSH; for A3 radioligand binding inhibition: human melanocortin MC3 membranes
T7 construct: purchased Perkin Elmer Biosignal
T7 sequence (P41968 whole entry): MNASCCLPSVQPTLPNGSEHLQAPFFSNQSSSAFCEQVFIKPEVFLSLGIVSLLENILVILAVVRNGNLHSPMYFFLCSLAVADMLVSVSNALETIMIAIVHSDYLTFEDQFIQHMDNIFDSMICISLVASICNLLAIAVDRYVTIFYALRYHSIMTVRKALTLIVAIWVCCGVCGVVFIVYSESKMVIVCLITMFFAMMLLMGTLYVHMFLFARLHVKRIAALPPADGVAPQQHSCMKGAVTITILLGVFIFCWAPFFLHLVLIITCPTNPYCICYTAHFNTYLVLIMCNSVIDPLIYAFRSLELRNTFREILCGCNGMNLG
In short: as §2

Human melanocortin (MC5) = target: T8, Human melanocortin (MC5) (Homo sapiens, UniProt P33032); assay: Radioligand binding, human melanocortin MC5 membranes, FlashPlate, [125I]-NDP-αMSH; settings: compound at 10 μM; for A5: inhibition of radioligand binding, human melanocortin (MC5): [125I]-NDP-αMSH; for A5 radioligand binding inhibition: human melanocortin MC5 membranes
T8 construct: purchased Perkin Elmer Biosignal
T8 sequence (P33032 whole entry): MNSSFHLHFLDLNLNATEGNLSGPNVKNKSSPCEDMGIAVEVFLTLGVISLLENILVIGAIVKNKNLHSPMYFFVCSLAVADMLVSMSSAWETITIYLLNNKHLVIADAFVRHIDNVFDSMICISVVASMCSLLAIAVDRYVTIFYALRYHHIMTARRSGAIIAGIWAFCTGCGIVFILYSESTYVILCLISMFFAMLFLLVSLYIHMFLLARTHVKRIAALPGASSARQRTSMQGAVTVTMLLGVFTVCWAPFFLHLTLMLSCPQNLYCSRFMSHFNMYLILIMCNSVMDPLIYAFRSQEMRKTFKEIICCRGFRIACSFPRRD
In short: as §2

[2] = target: T9, Human neuropeptide Y (NPY-Y1) (Homo sapiens, UniProt P25929); assay: Radioligand binding, human neuropeptide Y NPY-Y1 membranes, FlashPlate, [125I]-PYY; settings: compound at 10 μM; for A9: inhibition of radioligand binding, human neuropeptide Y (NPY-Y1): [125I]-PYY; for A9 radioligand binding inhibition: human NPY-Y1 membranes
T9 construct: purchased Perkin Elmer Biosignal
T9 sequence (P25929 1-384): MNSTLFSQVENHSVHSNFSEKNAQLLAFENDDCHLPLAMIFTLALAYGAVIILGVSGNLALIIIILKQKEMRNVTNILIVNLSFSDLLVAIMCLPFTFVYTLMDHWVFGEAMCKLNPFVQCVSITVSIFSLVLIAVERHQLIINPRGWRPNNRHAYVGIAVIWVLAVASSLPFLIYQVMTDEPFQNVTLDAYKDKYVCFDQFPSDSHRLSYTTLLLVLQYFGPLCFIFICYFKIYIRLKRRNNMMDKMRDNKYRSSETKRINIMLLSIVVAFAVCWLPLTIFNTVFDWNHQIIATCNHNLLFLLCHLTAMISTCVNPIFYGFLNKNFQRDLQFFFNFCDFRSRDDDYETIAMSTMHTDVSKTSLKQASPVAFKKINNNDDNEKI
In short: as §2

Human μ-opioid (MOP) = target: T10, Human μ-opioid (MOP) (Homo sapiens, UniProt P35372); assay: Radioligand binding, human μ-opioid (MOP) membranes, FlashPlate, [3H]-Naloxone; settings: compound at 10 μM; for A7: inhibition of radioligand binding, human μ-opioid (MOP): [3H]-Naloxone; for A7 radioligand binding inhibition: human μ-opioid (MOP) membranes
T10 construct: purchased Perkin Elmer Biosignal
T10 sequence (P35372 whole entry): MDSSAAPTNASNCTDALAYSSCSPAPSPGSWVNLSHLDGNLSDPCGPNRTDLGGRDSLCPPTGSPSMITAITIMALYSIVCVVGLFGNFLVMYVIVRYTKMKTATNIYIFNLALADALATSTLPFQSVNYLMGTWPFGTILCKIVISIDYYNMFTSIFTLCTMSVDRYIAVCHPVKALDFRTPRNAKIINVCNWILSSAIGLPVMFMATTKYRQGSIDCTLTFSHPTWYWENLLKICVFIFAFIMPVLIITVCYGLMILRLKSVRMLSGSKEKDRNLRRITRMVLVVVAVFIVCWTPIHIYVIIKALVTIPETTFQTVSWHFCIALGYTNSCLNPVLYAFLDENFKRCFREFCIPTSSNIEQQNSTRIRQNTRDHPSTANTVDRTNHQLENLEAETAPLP
In short: as §2

Human δ-opioid (DOP) = target: T11, Human δ-opioid (DOP) (Homo sapiens, UniProt P41143); assay: Radioligand binding, human δ-opioid (DOP) membranes, FlashPlate, [3H]-Bremazocine; settings: compound at 10 μM; for A1: inhibition of radioligand binding, human δ-opioid (DOP): [3H]-Bremazocine; for A1 radioligand binding inhibition: human δ-opioid (DOP) membranes
T11 construct: purchased Perkin Elmer Biosignal
T11 sequence (P41143 whole entry): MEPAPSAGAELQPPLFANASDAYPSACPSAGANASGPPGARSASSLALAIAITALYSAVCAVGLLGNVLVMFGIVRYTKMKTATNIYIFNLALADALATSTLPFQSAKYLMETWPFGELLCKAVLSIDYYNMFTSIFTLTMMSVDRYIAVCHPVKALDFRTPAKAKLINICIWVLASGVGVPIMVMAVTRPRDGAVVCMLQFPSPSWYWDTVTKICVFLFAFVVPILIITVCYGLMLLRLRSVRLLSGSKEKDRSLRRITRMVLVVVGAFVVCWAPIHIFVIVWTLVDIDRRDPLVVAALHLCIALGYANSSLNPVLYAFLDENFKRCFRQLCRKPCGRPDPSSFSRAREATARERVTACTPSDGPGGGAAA
In short: as §2

Row | SMILES | A2: inhibition of radioligand binding, human κ-opioid (KOP) (Human κ-Opioid (KOP)) | A8: inhibition of radioligand binding, human neurokinin (NK1) (Human neurokinin (NK1)) | A11: inhibition of radioligand binding, mouse urotensin (mUR2) (Mouse urotensin (mUR2)) | A5: inhibition of radioligand binding, human melanocortin (MC5) (Human melanocortin (MC5)) | A9: inhibition of radioligand binding, human neuropeptide Y (NPY-Y1) [2] | A7: inhibition of radioligand binding, human μ-opioid (MOP) (Human μ-opioid (MOP)) | A1: inhibition of radioligand binding, human δ-opioid (DOP) (Human δ-opioid (DOP)) | A2 radioligand binding inhibition (Human κ-Opioid (KOP)) | A6 radioligand binding inhibition [1] | A8 radioligand binding inhibition (Human neurokinin (NK1)) | A10 radioligand binding inhibition (Human opioid (ORL1)) | A11 radioligand binding inhibition (Mouse urotensin (mUR2)) | A4 radioligand binding inhibition (Human Melanocortin (MC4)) | A3 radioligand binding inhibition (Human Melanocortin (MC3)) | A5 radioligand binding inhibition (Human melanocortin (MC5)) | A9 radioligand binding inhibition [2] | A7 radioligand binding inhibition (Human μ-opioid (MOP)) | A1 radioligand binding inhibition (Human δ-opioid (DOP)) | also measured
1 | O=C(N[C@H]1C(NC(=O)C2CCNCC2)O[C@H](CO)[C@@H](O)[C@@H]1OCc1cccc2ccccc12)c1ccccc1 (stereo partly drawn) [compound 363] | − (“−” indicates less than 50% inhibition at 10 μM) | + (“+” indicates greater than 50% inhibition at 10 μM) | − (“−” indicates less than 50% inhibition at 10 μM) | − (“−” indicates less than 50% inhibition at 10 μM) | − (“−” indicates less than 50% inhibition at 10 μM) | − (“−” indicates less than 50% inhibition at 10 μM) | − (“−” indicates less than 50% inhibition at 10 μM) | – | – | – | – | – | – | – | – | – | – | – | A6: inhibition of radioligand binding, human melanin-concentrating hormone (MCH1) [1]: − (“−” indicates less than 50% inhibition at 10 μM); A10: inhibition of radioligand binding, human opioid (ORL1) (Human opioid (ORL1)): − (“−” indicates less than 50% inhibition at 10 μM); A4: inhibition of radioligand binding, human melanocortin (MC4) (Human Melanocortin (MC4)): − (“−” indicates less than 50% inhibition at 10 μM); A3: inhibition of radioligand binding, human melanocortin (MC3) (Human Melanocortin (MC3)): − (“−” indicates less than 50% inhibition at 10 μM)
2 | CO[C@H]1[C@H](O)[C@@H](COCc2ccccc2)OC(OCc2ccc(-c3ccccc3)cc2)[C@@H]1NC(=O)CCCNC(=N)N (stereo partly drawn) [compound 61] | – | – | – | – | – | – | – | + (“+” indicates greater than 50% inhibition at 10 μM) | − (“−” indicates less than 50% inhibition at 10 μM) | + (“+” indicates greater than 50% inhibition at 10 μM) | − (“−” indicates less than 50% inhibition at 10 μM) | − (“−” indicates less than 50% inhibition at 10 μM) | − (“−” indicates less than 50% inhibition at 10 μM) | − (“−” indicates less than 50% inhibition at 10 μM) | + (“+” indicates greater than 50% inhibition at 10 μM) | − (“−” indicates less than 50% inhibition at 10 μM) | + (“+” indicates greater than 50% inhibition at 10 μM) | − (“−” indicates less than 50% inhibition at 10 μM) | –
3 | NCCC(=O)NC1C(OCc2ccc(Cl)cc2)OC(COCc2ccc3ccccc3c2)C(O)C1OCc1ccc2ccccc2c1 (single isomer, unassigned) [compound 478] | − (“−” indicates less than 50% inhibition at 10 μM) | + (“+” indicates greater than 50% inhibition at 10 μM) | − (“−” indicates less than 50% inhibition at 10 μM) | + (“+” indicates greater than 50% inhibition at 10 μM) | − (“−” indicates less than 50% inhibition at 10 μM) | − (“−” indicates less than 50% inhibition at 10 μM) | − (“−” indicates less than 50% inhibition at 10 μM) | – | – | – | – | – | – | – | – | – | – | – | A6: inhibition of radioligand binding, human melanin-concentrating hormone (MCH1) ([1]; 10 µM): + (“+” indicates greater than 50% inhibition at 10 μM); A10: inhibition of radioligand binding, human opioid (ORL1) (Human opioid (ORL1); 10 µM): − (“−” indicates less than 50% inhibition at 10 μM); A4: inhibition of radioligand binding, human melanocortin (MC4) (Human Melanocortin (MC4); 10 µM): + (“+” indicates greater than 50% inhibition at 10 μM); A3: inhibition of radioligand binding, human melanocortin (MC3) (Human Melanocortin (MC3); 10 µM): + (“+” indicates greater than 50% inhibition at 10 μM)
4 | COC[C@H]1OC(OCCc2ccccc2)[C@H](NC(=O)CCCN)[C@@H](OCc2ccc(-c3ccccc3)cc2)[C@@H]1O (stereo partly drawn) [compound 42] | – | – | – | – | – | – | – | − (“−” indicates less than 50% inhibition at 10 μM) | − (“−” indicates less than 50% inhibition at 10 μM) | − (“−” indicates less than 50% inhibition at 10 μM) | − (“−” indicates less than 50% inhibition at 10 μM) | − (“−” indicates less than 50% inhibition at 10 μM) | − (“−” indicates less than 50% inhibition at 10 μM) | − (“−” indicates less than 50% inhibition at 10 μM) | + (“+” indicates greater than 50% inhibition at 10 μM) | − (“−” indicates less than 50% inhibition at 10 μM) | − (“−” indicates less than 50% inhibition at 10 μM) | − (“−” indicates less than 50% inhibition at 10 μM) | –
5 | COC[C@H]1OC(OCc2ccc(-c3ccccc3)cc2)[C@H](NC(=O)CCCNC(=N)N)[C@@H](OCc2ccc3ccccc3c2)[C@@H]1O (stereo partly drawn) [compound 6] | – | – | – | – | – | – | – | + (“+” indicates greater than 50% inhibition at 10 μM) | + (“+” indicates greater than 50% inhibition at 10 μM) | + (“+” indicates greater than 50% inhibition at 10 μM) | − (“−” indicates less than 50% inhibition at 10 μM) | − (“−” indicates less than 50% inhibition at 10 μM) | − (“−” indicates less than 50% inhibition at 10 μM) | − (“−” indicates less than 50% inhibition at 10 μM) | + (“+” indicates greater than 50% inhibition at 10 μM) | − (“−” indicates less than 50% inhibition at 10 μM) | + (“+” indicates greater than 50% inhibition at 10 μM) | − (“−” indicates less than 50% inhibition at 10 μM) | –
6 | CO[C@H]1[C@H](O)[C@@H](COCc2ccc3ccccc3c2)OC(OCc2ccc3ccccc3c2)[C@@H]1NC(=O)CCNC(=N)N (stereo partly drawn) [compound 71] | – | – | – | – | – | – | – | + (“+” indicates greater than 50% inhibition at 10 μM) | + (“+” indicates greater than 50% inhibition at 10 μM) | + (“+” indicates greater than 50% inhibition at 10 μM) | + (“+” indicates greater than 50% inhibition at 10 μM) | − (“−” indicates less than 50% inhibition at 10 μM) | + (“+” indicates greater than 50% inhibition at 10 μM) | + (“+” indicates greater than 50% inhibition at 10 μM) | + (“+” indicates greater than 50% inhibition at 10 μM) | − (“−” indicates less than 50% inhibition at 10 μM) | + (“+” indicates greater than 50% inhibition at 10 μM) | − (“−” indicates less than 50% inhibition at 10 μM) | –
